Consider 15 compounds from PubChem BioAssay (NCI).

Among the test systems are XF 498 CNS; NCI-H522 lung; COLO 205 colon; SF-295 CNS; SNB-78 CNS; OVCAR-3 ovarian; DLD-1 colon.
Holding throughout (experiment): NCI-60 cell line screen, 48 h

Structures are written as SMILES. Several values for one entry are separate records, joined by “and”; a condition that tells them apart may be missing. Equal entries are not always repeated.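 The compound was tested at five concentrations on cells cultured in 96-well plates, with a 48-hour exposure period. GI50 = concentration required for 50% inhibition of growth. At the TGI there is no net growth.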

With `CCOC(=O)c1ccc(N[C@@H]2c3cc4c(cc3C(C3=CC(=O)C(=O)C(OC)=C3)[C@H]3C(=O)OCC32)OCO4)cc1` (some centres not stated), the TGI in the assay with XF 498 CNS was 9.38 µM; in the assay with NCI-H522 lung, 18.8 µM; with COLO 205 colon it was 28.3 µM; with SF-295 CNS it was 6.87 µM; with SNB-78 CNS, over 54.6 µM; in the assay on OVCAR-3 ovarian, 31.7 µM. Besides, the TGI in the assay on DLD-1 colon was over 39.8 µM.
As to `COc1ccc(Nc2nc3ccccc3nc2-c2cccs2)cc1`, the TGI with XF 498 CNS, in the assay with NCI-H522 lung, in the assay with COLO 205 colon, in the assay with SF-295 CNS, in the assay with SNB-78 CNS and in the assay with OVCAR-3 ovarian was over 100 µM in each case. Further, the TGI in the assay with DLD-1 colon was over 100 µM.
Regarding `CSc1c(C)c(C)nn1-c1ccccc1`, the TGI in the assay on XF 498 CNS, in the assay on NCI-H522 lung, in the assay on COLO 205 colon, with SF-295 CNS, with SNB-78 CNS and with DLD-1 colon was over 100 µM throughout.
For the compound `C[n+]1c2ccccc2cc2c(CNC(CCCN=C(N)N)C(=O)O)cccc21` (configuration not stated), the GI50 in the assay on XF 498 CNS is 2.46 µM; in the assay with NCI-H522 lung, 0.157 µM; in the assay on SF-295 CNS, 5.03 µM; with SNB-78 CNS, 5.8 µM; in the assay with OVCAR-3 ovarian, 1.57 µM; with DLD-1 colon, 0.481 µM. The TGI is 3.5 µM and 4.02 µM with XF 498 CNS; 2.78 µM and 0.342 µM with NCI-H522 lung; 0.686 µM in the assay with COLO 205 colon; 17.5 µM in the assay with SF-295 CNS; 7.93 µM and 35.5 µM with SNB-78 CNS; 6.36 µM and 4.58 µM in the assay with OVCAR-3 ovarian. Further, the TGI with DLD-1 colon is 1.32 µM and 1.74 µM.
Consider `CCN(CC)CC(=O)N1CCc2c([nH]c3ccccc23)C1c1cccnc1` (configuration not stated), for which the TGI with XF 498 CNS, with NCI-H522 lung, in the assay with SF-295 CNS, in the assay on SNB-78 CNS, in the assay with OVCAR-3 ovarian and in the assay with DLD-1 colon was over 100 µM each time.
As for `Cc1cc(N(CCC#N)CCC#N)ccc1/C=C1N=C(/C=C/c2ccccc2)OC(=O)N\1`, the TGI in the assay on XF 498 CNS is over 100 µM; in the assay on NCI-H522 lung, over 100 µM; in the assay with COLO 205 colon it was over 100 µM; in the assay on SF-295 CNS it was 41.3 µM; in the assay with SNB-78 CNS, over 100 µM; in the assay on OVCAR-3 ovarian it was over 100 µM. In the assay with DLD-1 colon, this compound registered a TGI of over 100 µM.
As to `C#CCC(N)(CO)C(=O)O` (configuration not stated), the TGI in the assay with XF 498 CNS, in the assay with NCI-H522 lung, in the assay with COLO 205 colon, with SF-295 CNS, with SNB-78 CNS and in the assay on OVCAR-3 ovarian was over 100 µM throughout. For the same compound, in the assay with DLD-1 colon, the TGI is over 100 µM.
In the case of `C=CCC1[C@@H](C(C)(C)C(C(C)=O)C(=O)C(=O)OC)OC(C(C)(C)C)N1C(=O)OC` (some centres not stated), the TGI in the assay on XF 498 CNS, in the assay on NCI-H522 lung, in the assay on COLO 205 colon, in the assay with SF-295 CNS, in the assay on SNB-78 CNS and in the assay on OVCAR-3 ovarian was over 100 µM in each case. Also, the TGI with DLD-1 colon is over 100 µM.
With `COc1cc2cnc3c4ccccc4ccc3c2cc1OC`, the TGI with XF 498 CNS, in the assay on NCI-H522 lung, in the assay with COLO 205 colon, in the assay on SF-295 CNS, with SNB-78 CNS and in the assay with OVCAR-3 ovarian was over 100 µM throughout. This compound also yielded a TGI in the assay with DLD-1 colon of over 100 µM.
Consider `COc1cccc(/C=C2\CCC(C)(CN(C)C)C2=O)c1` (configuration not stated), for which the TGI with XF 498 CNS is over 100 µM; with NCI-H522 lung, 91.6 µM; with COLO 205 colon it was over 100 µM; in the assay on SF-295 CNS, over 100 µM; in the assay on SNB-78 CNS, over 100 µM; in the assay on OVCAR-3 ovarian, over 100 µM. For the same compound, the TGI in the assay with DLD-1 colon is over 100 µM.
Turning to `CNC(SC)=C1C(=O)OC(C)(C)OC1=O`, the TGI in the assay with XF 498 CNS, in the assay on NCI-H522 lung, in the assay with COLO 205 colon, in the assay on SF-295 CNS, in the assay on SNB-78 CNS and with OVCAR-3 ovarian was over 100 µM throughout. For the same compound, in the assay with DLD-1 colon, the TGI turned out to be 54.2 µM.
For the compound `CC(CC(=O)Nc1ccc(NC(=O)CC(C)N=NC(N)=S)cc1)N=NC(N)=S` (configuration not stated), the TGI in the assay with XF 498 CNS, with COLO 205 colon, with SF-295 CNS, in the assay with SNB-78 CNS, in the assay on OVCAR-3 ovarian and in the assay with DLD-1 colon was over 100 µM in each case.
Turning to `CC1=C(C(=O)Nc2ccccc2C)C(/C=C/c2ccccc2)C(C(=O)Nc2ccccc2C)=C(C)N1`, the TGI with XF 498 CNS, with NCI-H522 lung, in the assay with COLO 205 colon, with SF-295 CNS, with SNB-78 CNS and in the assay on OVCAR-3 ovarian was over 100 µM throughout. In addition, the TGI in the assay on DLD-1 colon is over 100 µM.
As for `O=C/C(=C(/Cl)c1ccc(O)cc1)c1ccccc1`, the TGI in the assay with XF 498 CNS was over 45.4 µM; in the assay with NCI-H522 lung, 26.1 µM; in the assay with COLO 205 colon it was 46.9 µM; with SF-295 CNS, over 72.2 µM; with SNB-78 CNS, over 82.9 µM; in the assay with OVCAR-3 ovarian it was 37.5 µM. In the assay on DLD-1 colon, this compound showed a TGI of over 60.1 µM.
As to `CCCCCCCCCCCCCC(=O)OCC1OC(=O)CC1O` (configuration not stated), the TGI in the assay on XF 498 CNS, with COLO 205 colon, in the assay with SF-295 CNS, in the assay with SNB-78 CNS, in the assay on OVCAR-3 ovarian and with DLD-1 colon was over 100 µM each time.
